Experimental data as given in patent US7875645B2, “Method for the treatment of CNS disorders with substituted 2-imidazoles or imidazole derivatives” (Hoffman-La Roche Inc., priority 2006, dated 2011).
pKd: −log10 of the molar value. Structures can show the parent of a compound that is named as a salt.

Target: T1, TAAR1 (Mus musculus, UniProt Q923Y8)
T1 construct: expressed in transfected cells; host or cells: HEK293 (ATCC # CRL-1573), stably transfected with pIRESneo2 expression plasmid; membranes prepared
T1 sequence (Q923Y8 whole entry): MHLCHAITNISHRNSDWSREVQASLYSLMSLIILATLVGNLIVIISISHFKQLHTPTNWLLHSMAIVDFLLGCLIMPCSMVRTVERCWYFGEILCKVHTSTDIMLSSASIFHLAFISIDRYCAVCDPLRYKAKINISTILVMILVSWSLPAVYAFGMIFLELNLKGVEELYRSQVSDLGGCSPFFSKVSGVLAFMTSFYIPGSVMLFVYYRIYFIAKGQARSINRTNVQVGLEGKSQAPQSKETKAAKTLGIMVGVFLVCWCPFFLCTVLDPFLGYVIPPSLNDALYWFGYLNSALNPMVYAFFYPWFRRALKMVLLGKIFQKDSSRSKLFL
Experiment: Radioligand binding assay on membranes of HEK293 cells stably expressing TAAR1
Settings: for Ki: mouse TAAR1, radioligand [3H]-rac-2-(1,2,3,4-tetrahydro-1-naphthyl)-2-imidazoline at 60 nM, 4° C., 30 min
Experimental: For the construction of expression plasmids the coding sequences of human, rat and mouse TAAR 1 were amplified from genomic DNA essentially as described by Lindemann et al.. The Expand High Fidelity PCR System (Roche Diagnostics) was used with 1.5 mM Mg^2+ and purified PCR products were cloned into pCR2.1-TOPO cloning vector (Invitrogen) following the instructions of the manufacturer. PCR products were subcloned into the pIRESneo2 vector (BD Clontech, Palo Alto, Calif.), and expression vectors were sequence verified before introduction in cell lines.
For the generation of stably transfected cell lines HEK293 cells were transfected with the pIRESneo2 expression plasmids containing the TAAR coding sequences (described above) with Lipofectamine 2000 (Invitrogen) according to the instructions of the manufacturer, and 24 hrs post transfection the culture medium was supplemented with 1 mg/ml G418 (Sigma, Buchs, Switzerland). After a culture period of about 10 d clones were isolated, expanded and tested for responsiveness to trace amines (all compounds purchased from Sigma) with the cAMP Biotrak Enzyme immunoassay (EIA) System (Amersham) following the non-acetylation EIA procedure provided by the manufacturer.
Cells at confluence were rinsed with ice-cold phosphate buffered saline without Ca^2+ and Mg^2+ containing 10 mM EDTA and pelleted by centrifugation at 1000 rpm for 5 min at 4° C. The pellet was then washed twice with ice-cold phosphate buffered saline and cell pellet was frozen immediately by immersion in liquid nitrogen and stored until use at −80° C. Cell pellet was then suspended in 20 ml HEPES-NaOH (20 mM), pH 7.4 containing 10 mM EDTA, and homogenized with a Polytron (PT 3000, Kinematica) at 10,000 rpm for 10 s. The homogenate was centrifuged at 48,000×g for 30 min at 4° C. and the pellet resuspended in 20 ml HEPES-NaOH (20 mM), pH 7.4 containing 0.1 mM EDTA (buffer A), and homogenized with a Polytron at 10,000 rpm for 10 s. The homogenate was then centrifuged at 48,000×g for 30 min at 4° C. and the pellet resuspended in 20 ml buffer A, and homogenized with a Polytron at 10,000 rpm for 10 s. Protein concentration was determined by the method of Pierce (Rockford, Ill.). The homogenate was then centrifuged at 48,000×g for 10 min at 4° C., resuspended in HEPES-NaOH (20 mM), pH 7.0 including MgCl2 (10 mM) and […] homogenized with a Polytron at 10,000 rpm for 10 s.
Binding assay was performed at 4° C. in a final volume of 1 ml, and with an incubation time of 30 min. […] Non-specific binding was defined as the amount of [^3H]-rac-2-(1,2,3,4-tetrahydro-1-naphthyl)-2-imidazoline bound in the presence of the appropriate unlabelled ligand (10 μM). Competing ligands were tested in a wide range of concentrations (10 pM-30 μM). […] Each experiment was performed in duplicate. Al incubations were terminated by rapid filtration through UniFilter-96 plates (Packard Instrument Company) and glass filter GF/C, pre-soaked for at least 2 h in polyethylenimine 0.3%, and using a Filtermate 96 Cell Harvester (Packard Instrument Company). The tubes and filters were then washed 3 times with 1 ml aliquots of cold buffer B. Filters were not dried and soaked in Ultima gold (45 μl/well, Packard Instrument Company) and bound radioactivity was counted by a TopCount Microplate Scintillation Counter (Packard Instrument Company).

Compound | Ki [µM] | pKd (radioligand used in the TAAR1 binding assay, species not given, read-out: calculated Kd value of the radioligand)
4-Tritio-2-naphthalen-1-ylmethyl-4,5-dihydro-1H-imidazole [Example 113] | 0.007 | –
Cc1cccc(C(C)C2=NCCN2)c1C (racemic) [Example 18, rac-2-[1-(2,3-Dimethyl-phenyl)-ethyl]-4,5-dihydro-1H-imidazole hydrochloride] | 0.027 | –
CC(C1=NCCN1)c1ccc(Cc2ccccc2)cc1 (racemic) [Example 158, rac-2-[1-(4-Benzyl-phenyl)-ethyl]-4,5-dihydro-1H-imidazole hydrochloride] | 0.021 | –
c1ccc2c(c1)CCCC2C1=NCCN1 (racemic) [[^3H]-rac-2-(1,2,3,4-tetrahydro-1-naphthyl)-2-imidazoline, reference compound] | – | 7.22
CCc1cccc(OC)c1CC1=NCCN1 [Example 9, 2-(2-Ethyl-6-methoxy-benzyl)-4,5-dihydro-1H-imidazole] | 0.01 | –
COc1cccc(C)c1CC1=NCCN1 [Example 10, 2-(2-Methoxy-6-methyl-benzyl)-4,5-dihydro-1H-imidazole] | 0.023 | –
CCc1cccc(C)c1CC1=NCCN1 [Example 11, 2-(2-Ethyl-6-methyl-benzyl)-4,5-dihydro-1H-imidazole] | 0.007 | –
CCc1cccc(C(C)C)c1CC1=NCCN1 [Example 12, 2-(2-Ethyl-6-isopropyl-benzyl)-4,5-dihydro-1H-imidazole] | 0.03 | –
Clc1cccc(CC2=NCCN2)c1Cl [Example 17, 2-(2,3-Dichloro-benzyl)-4,5-dihydro-1H-imidazole] | 0.021 | –
CCc1ccc(Br)c(CC)c1CC1=NCCN1 [Example 32, 2-(3-Bromo-2,6-diethyl-benzyl)-4,5-dihydro-1H-imidazole] | 0.005 | –
COc1cc(C)c(CC2=NCCN2)cc1C [Example 33, 2-(4-Methoxy-2,5-dimethyl-benzyl)-4,5-dihydro-1H-imidazole hydrochloride] | 0.014 | –
COc1cc(Br)c(CC2=NCCN2)cc1OC [Example 34, 2-(2-Bromo-4,5-dimethoxy-benzyl)-4,5-dihydro-1H-imidazole hydrochloride] | 0.031 | –
CCc1ccccc1CC1=NCCN1 [Example 54, 2-(2-Ethyl-benzyl)-4,5-dihydro-1H-imidazole] | 0.016 | –
COc1cccc(Cl)c1CC1=NCCN1 [Example 55, 2-(2-Chloro-6-methoxy-benzyl)-4,5-dihydro-1H-imidazole] | 0.017 | –
c1ccc(C2CC2)c(CC2=NCCN2)c1 [Example 56, 2-(2-Cyclopropyl-benzyl)-4,5-dihydro-1H-imidazole] | 0.025 | –
Cc1cccc(Br)c1CC1=NCCN1 [Example 57, 2-(2-Bromo-6-methyl-benzyl)-4,5-dihydro-1H-imidazole] | 0.029 | –
COc1cc(Br)c(C)c(CC2=NCCN2)c1 [Example 58, 2-(3-Bromo-5-methoxy-2-methyl-benzyl)-4,5-dihydro-1H-imidazole] | 0.03 | –
FC(F)(F)c1cccc(CC2=NCCN2)c1Cl [Example 59, 2-(2-Chloro-3-trifluoromethyl-benzyl)-4,5-dihydro-1H-imidazole] | 0.041 | –
CCc1cccc(CC)c1Cc1ncc[nH]1 [Example 70, 2-(2,6-Diethyl-benzyl)-1H-imidazole] | 0.025 | –
Cc1cc(C)c(C)c(Cc2ncc[nH]2)c1C [Example 71, 2-(2,3,5,6-Tetramethyl-benzyl)-1H-imidazole] | 0.01 | –
Cc1c(C)c(C)c(Cc2ncc[nH]2)c(C)c1C [Example 72, 2-Pentamethylphenylmethyl-1H-imidazole] | 0.017 | –
COc1cc(C)c(Cc2ncc[nH]2)c(C)c1 [Example 73, 2-(4-Methoxy-2,6-dimethyl-benzyl)-1H-imidazole] | 0.049 | –
CCc1ccc(Br)c(CC)c1Cc1ncc[nH]1 [Example 77, 2-(3-Bromo-2,6-diethyl-benzyl)-1H-imidazole] | 0.026 | –

Compound | Ki [µM] | pKd (radioligand used in the TAAR1 binding assay, species not given, read-out: calculated Kd value of the radioligand)
Cc1ccc2ccoc2c1CC1=NCCN1 [Example 106, 2-(6-Methyl-benzofuran-7-ylmethyl)-4,5-dihydro-1H-imidazole] | 0.017 | –
c1cc(CC2=NCCN2)c2occc2c1 [Example 107, 2-Benzofuran-7-ylmethyl-4,5-dihydro-1H-imidazole] | 0.022 | –
Cc1sc(C)c(CC2=NCCN2)c1C [Example 109, 2-(2,4,5-Trimethyl-thiophen-3-ylmethyl)-4,5-dihydro-1H-imidazole] | 0.004 | –
Cc1sc(C)c(Cc2ncc[nH]2)c1C [Example 110, 2-(2,4,5-Trimethyl-thiophen-3-ylmethyl)-1H-imidazole] | 0.021 | –
[3H]c1ccc(CC)c(Cc2ncc[nH]2)c1CC [Example 112, 2-(2,6-Diethyl-3-tritio-benzyl)-1H-imidazole] | 0.025 | –
Cc1cc(C(C)(C)C)cc(C)c1CC1=NCCN1 [Example 114, 2-(4-tert-Butyl-2,6-dimethyl-benzyl)-4,5-dihydro-1H-imidazole, reference compound] | 0.006 | –
Cc1c(C)c(C)c(CC2=NCCN2)c(C)c1C [Example 115, 2-Pentamethylphenylmethyl-4,5-dihydro-1H-imidazole] | 0.007 | –
Cc1cc(C)c(C)c(CC2=NCCN2)c1C [Example 116, 2-(2,3,5,6-Tetramethyl-benzyl)-4,5-dihydro-1H-imidazole] | 0.008 | –
Cc1cc(C(C)(C)C)c(O)c(C)c1CC1=NCCN1 [Example 117, 6-tert-Butyl-3-(4,5-dihydro-1H-imidazol-2-ylmethyl)-2,4-dimethyl-phenol, reference compound] | 0.008 | –
Cc1cc(C)c(CC2=NCCN2)c(C)c1 [Example 118, 2-(2,4,6-Trimethyl-benzyl)-4,5-dihydro-1H-imidazole, reference compound] | 0.017 | –
Clc1ccc(CC2=NCCN2)cc1Cl [Example 121, 2-(3,4-Dichloro-benzyl)-4,5-dihydro-1H-imidazole] | 0.023 | –
COc1cccc(CC2=NCCN2)c1OC [Example 122, 2-(2,3-Dimethoxy-benzyl)-4,5-dihydro-1H-imidazole] | 0.025 | –
COc1cc(C)c(CC2=NCCN2)c(C)c1 [Example 123, 2-(4-Methoxy-2,6-dimethyl-benzyl)-4,5-dihydro-1H-imidazole] | 0.028 | –
Brc1ccccc1CC1=NCCN1 [Example 124, 2-(2-Bromo-benzyl)-4,5-dihydro-1H-imidazole] | 0.044 | –
Nc1c(Cl)cc(CC2=NCCN2)cc1Cl [Example 125, 2,6-Dichloro-4-(4,5-dihydro-1H-imidazol-2-ylmethyl)-phenylamine, reference compound] | 0.048 | –
Cc1cc(C)c(Cc2ncc[nH]2)c(C)c1 [Example 137, 2-(2,4,6-Trimethyl-benzyl)-1H-imidazole] | 0.038 | –
c1ccc2c(CC3=NCCN3)cccc2c1 [Example 140, 2-Naphthalen-1-ylmethyl-4,5-dihydro-1H-imidazole, reference compound] | 0.007 | –
c1ccc2cc(CC3=NCCN3)ccc2c1 [Example 141, 2-Naphthalen-2-ylmethyl-4,5-dihydro-1H-imidazole] | 0.029 | –
c1ccc2c(CC3=NCCN3)csc2c1 [Example 143, 2-Benzo[b]thiophen-3-ylmethyl-4,5-dihydro-1H-imidazole] | 0.004 | –
COc1ccc2ccccc2c1CC1=NCCN1 [Example 149, 2-(2-Methoxy-naphthalen-1-ylmethyl)-4,5-dihydro-1H-imidazole] | 0.012 | –
Cc1ccc2ccccc2c1CC1=NCCN1 [Example 154, 2-(2-Methyl-naphthalen-1-ylmethyl)-4,5-dihydro-1H-imidazole] | 0.01 | –
c1cc(CC2=NCCN2)c2ccoc2c1 [Example 168, 2-Benzofuran-4-ylmethyl-4,5-dihydro-1H-imidazole hydrochloride] | 0.045 | –
